Patent US8361802B2, “Fluorescent ozone sensor” (University of Pittsburgh—Of the Commonwealth System of …, priority 2009, dated 2013)

What was measured:
[1] = Air pollutant specificity; conditions: acid 250 μM, metal 100 nM, 30 minutes at 37° C.
Protocol: FIG. 3B illustrates Ozone specificity against other air pollutants: Sample A=no additive, Sample B=ozone, Sample C=HNO3, Sample D=H2SO4, Sample E=Pb, Sample F=Pd, Sample G=Pt. [Acid]=250 μM. [Metal]=100 nM. The acid samples were incubated in 5:95 MeOH/pure water for 30 minutes at 37° C. The metal samples were incubated in 5:95 MeOH/pH 7 buffer for 30 minutes at 37° C.
A number of other pollutants were screened to ensure that ozone was selectively detected. Nitrogen dioxide and sulfur dioxide convert to their corresponding acids in aqueous solution so nitric acid and sulfuric acid were screened. Lead, palladium and platinum, which are known pollutants emitted from automobiles, were also screened. […]
Acids: HNO3 or H2SO4 (10 μL of 0.1 M solution; [acid]final=250 μM) and solution A (5.0 μL, [compound 4]final=12.5 μM) were added to a mixture of MeOH/pure water solution (5:95) (4.0 mL), and the samples were incubated at 37° C. for 30 minutes before fluorescence measurement. […]
Metals: Pb, Pd or Pt solution (40 μL of 10 μM solution; [Metal]final=100 nM) and solution A (5.0 μL, [compound 4]final=12.5 μM) were added to a mixture of MeOH/pH 7 buffer ([PO4^3−]=5 mM) (5:95) (4.0 mL), and the samples were incubated at 37° C. for 30 minutes before fluorescence measurement. […]

Relative quantum yields = format: physicochemical; conditions: relative to fluorescein; phosphate buffer pH=7.0, excited at 490 nm
Protocol: Relative Quantum Yields. To determine quantum yields relative to fluorescein, a stock solution of compound 4 was prepared in DMSO (1 mM) and diluted in phosphate buffer (pH=7.0) to OD490=0.09. The samples were excited at 490 nm and the integrated emission spectra were compared. The quantum yields of all compounds were referenced to fluorescein in 0.1 N NaOH (Φ=0.95). The quantum yield for compound 4 was calculated as 0.00132

[2] = test system: Human bronchial epithelial cells (BEAS-2B); test: Live-cell imaging of human bronchial epithelial cells; format: cell-based; conditions: human bronchial epithelial cells
Protocol: Human bronchial epithelial cells (BEAS-2B) (American Type Culture Collectin) were grown in LHC-9 medium (Invitrogen) on glass-bottomed Petri dishes (MatTek) precoated with 0.01 mg ml^−1 of human fibronectin (Invitrogen), 0.029 mg ml^−1 Vitrogen 100 (Cohesion) and 0.01 mg ml^−1 bovine serum albumin (Invitrogen) in LHC-9 medium. Immediately prior to imaging, cells were rinsed with Hank's balanced salt solution, which contained calcium and magnesium, and placed inside a temperature-controlled, airtight environmental chamber and maintained at 37° C. and 5% CO2. Images were obtained using a Nikon TE2000E-PFS (Perfect focus system) microscope equipped with a […] oil-immersion objective (Nikon, CFI PlanFluor, NA 1.3) and a fluorescien isothiocyanate longpass filter set (Chroma), a Q-Imaging SRV CCD camera (Q-imaging) and MetaMorph software (Molecular Devices). The motorized XYZ stage used was made by ASA (Eugege). Baseline images were collected before the addition of compound 8 and time-lapsed images obtained at 30 second intervals after the addition of compound 8 (250 nM). Once stage baseline had been achieved, multiple washes were carried out and the media replaced. The cells were then exposed to ozone (˜2.1 ppm) and monitored every 30 seconds for 15 minutes. Ozone was generated from medical grade oxygen (Valley Gas) via a model V1-0 ultraviolet ozonator (OREC) and analyzed with a Dasibi (Glendale) direct-reading instrument. Ozone concentrations were maintained by adjusting both the intensity of the ultraviolet light and the flow rate of oxygen. For each experiment, images were collected from six stages, with a minimum of five cells per position (a minimum of 30 cells per […]).
In another embodiment of the invention, human bronchial epitelial cells were incubated with compound 4 to determine ozone's role in cell biology. […] Based on studies why compound 4 and structurally related compounds are not fluorescent, it is believed that the hydroxymethyl group 4 may have been oxidized to give a more electron-withdrawing group, possible a carboxyl or aldehyde group, and so emit a strong fluorescence signal. To circumvent such an oxidation event, compound 8 was prepared specific for ozone. […] Once a steady baseline signal had been established and maintained for five minutes, ozone gas was generated within the airtight environmental chamber that housed the cell-culture dishes, and fluorescent signals were monitored using live-cell microscopy for approximately 15 minutes.
FIGS. 16A-H are photographs of live-cell imaging of human bronchial epithelial cells in the presence of ozone using compound 8. The left-hand panels (FIGS. A-E) are pseudocolour images that indicate the changes in emission intensity over time, and the right-hand panels show differential interference contrast images of the bronchial epithelial cells. FIG. 16A is before the addition of compound 8 (0 seconds). FIG. 16B illustrates the cell at 107 seconds that is a steady state intensity reached with compound 8 at 250 nM. FIG. 16C illustrates the cell at 326 seconds when ozone flow is started. FIG. 16D illustrates the cell at 536 seconds with the emission intensity increasing. FIG. 16E illustrates the cell at 675 seconds when emission maximum is reached. FIG. 16F illustrates the cell at 820 seconds when the cell starts to die. FIG. 16G illustrates the cell at 969 seconds where the cell emission continues to fall. FIG. 16H illustrates the cell at 1148 seconds when the ozone flow is stopped.

For C=CCCOc1cc2oc3cc(=O)c(Cl)cc-3c(-c3ccccc3CO)c2cc1Cl [compound 4], which “fluorescent signal with other air pollutants (species C-G)” value [1] is on record?
Its value is “none of these species C-G produced a fluorescent signal”.

And the quantum yield (Relative quantum yields)?
The quantum yield was 0.00132.

What about the cell permeability [2] of the same compound?
Its cell permeability is “cell permeable”.

What about the “fluorescence inside the cells in the absence of external ozone” value ([2]; no external ozone) of the same compound?
Its value is “converted to a fluorescent compound inside the cells”.
